These results are taken from ChEMBL document CHEMBL1201862, “PubChem BioAssay data set” (2004).

Each structure is given as a SMILES string. Calls of active or inactive are those of the source. Bounds are passed on as bounds.

One assay has as its target T1, Coagulation factor XII (Homo sapiens, UniProt P00748).
T1 sequence (P00748 whole entry): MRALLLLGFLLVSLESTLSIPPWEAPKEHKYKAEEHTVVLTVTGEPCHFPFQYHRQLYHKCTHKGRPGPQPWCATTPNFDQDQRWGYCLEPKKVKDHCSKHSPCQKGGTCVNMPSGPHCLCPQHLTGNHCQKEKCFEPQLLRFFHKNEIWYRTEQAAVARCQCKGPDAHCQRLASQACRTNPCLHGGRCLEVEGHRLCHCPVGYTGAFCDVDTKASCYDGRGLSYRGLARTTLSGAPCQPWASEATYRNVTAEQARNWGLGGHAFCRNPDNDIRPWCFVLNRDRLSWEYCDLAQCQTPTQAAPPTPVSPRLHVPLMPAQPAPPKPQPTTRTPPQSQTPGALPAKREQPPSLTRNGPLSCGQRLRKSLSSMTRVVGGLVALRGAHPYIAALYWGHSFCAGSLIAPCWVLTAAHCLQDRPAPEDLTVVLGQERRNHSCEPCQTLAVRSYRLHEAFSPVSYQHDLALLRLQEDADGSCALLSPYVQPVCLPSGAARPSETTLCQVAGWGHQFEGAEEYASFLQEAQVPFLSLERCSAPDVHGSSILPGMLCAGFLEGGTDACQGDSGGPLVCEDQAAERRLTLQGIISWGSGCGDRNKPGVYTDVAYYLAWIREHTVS
Kind of assay: Factor XIIa Dose Response Confirmation from Single Well HTS. [Related pubchem assays (depositor defined):AID701]. The format is functional.

A short description of assay [1]: Luminescence Cell-Based Dose Response to Identify Activators of 5'UTR Stem-Loop Driven Prion Protein mRNA Translation in H4-C Neuroglioblastoma Cells. [Related pubchem assays: 1829 (Project Summary), 1814 (Primary HTS)]. The class given is functional.
The next assay deals with Troponin, cardiac muscle (Homo sapiens, UniProt P19429+P45379+P63316). The assay is described as follows: Fluorescence-based biochemical high throughput dose response assay for activators of the calcium sensitivity of cardiac Regulated Thin Filaments (RTF). [Related pubchem assays (depositor defined):AID493008, AID493018, AID504382, AID504383]. The class given is protein-complex assay.

A short description of assay [2]: Luminescence Cell-Based Dose Response HTS to Identify Activators of Luciferase Translation or Activity in H4 […] Cells. [Related pubchem assays: 1829 (Project Summary), 1814 (Primary HTS)]. The class given is functional.
The nature of assay [3]: Luminescence Cell-Based Dose Response to Identify Activators of Luciferase Translation or Activity in H4-C Neuroglioblastoma Cells. [Related pubchem assays: 1829 (Project Summary), 1814 (Primary HTS)]. The class given is functional.
A short description of assay [4]: Luminescence Cell-Based Dose Confirmation to Identify Activators of 5'UTR Stem-Loop Driven Alpha-Synuclein mRNA Translation in H4 Neuroglioblastoma Cells. [Related pubchem assays: 1829 (Project Summary), 1814 (Primary HTS)]. The class given is functional.
Assay [5] concerns the target T2, RNA-binding protein pos-1 (Caenorhabditis elegans, UniProt G5EF15).
T2 sequence (G5EF15 whole entry): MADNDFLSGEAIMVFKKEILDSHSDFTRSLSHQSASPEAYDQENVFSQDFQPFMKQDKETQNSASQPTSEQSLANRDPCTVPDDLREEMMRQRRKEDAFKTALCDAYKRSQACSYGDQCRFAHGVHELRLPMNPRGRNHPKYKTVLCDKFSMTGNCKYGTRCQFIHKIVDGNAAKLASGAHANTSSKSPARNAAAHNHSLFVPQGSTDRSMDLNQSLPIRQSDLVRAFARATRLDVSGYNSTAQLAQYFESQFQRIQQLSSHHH
Kind of assay: disruptors of C. elegans POS-1 RNA interaction – biochemical, fluorescence polarization, dose response (AID 1964).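 Note: purified POS-1 fused to maltose binding protein made in E. coli; potency of compounds blocking POS-1 binding to fluorescent RNA.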 For orientation: Fluorescence polarisation rises when a labelled molecule tumbles more slowly, as on binding a larger partner.

Another assay has as its system H4. Kind of assay: Luminescence Cell-Based Dose Response HTS to Identify Activators of 5'UTR Stem-Loop Driven Prion Protein mRNA Translation in H4 Neuroglioblastoma Cells. [Related pubchem assays: 1829 (Project Summary), 1814 (Primary HTS)]. The following applies: Homo sapiens. The format is functional.
Assay [6] has as its target T3, Zinc finger protein mex-5 (Caenorhabditis elegans, UniProt Q9XUB2).
T3 sequence (Q9XUB2 whole entry): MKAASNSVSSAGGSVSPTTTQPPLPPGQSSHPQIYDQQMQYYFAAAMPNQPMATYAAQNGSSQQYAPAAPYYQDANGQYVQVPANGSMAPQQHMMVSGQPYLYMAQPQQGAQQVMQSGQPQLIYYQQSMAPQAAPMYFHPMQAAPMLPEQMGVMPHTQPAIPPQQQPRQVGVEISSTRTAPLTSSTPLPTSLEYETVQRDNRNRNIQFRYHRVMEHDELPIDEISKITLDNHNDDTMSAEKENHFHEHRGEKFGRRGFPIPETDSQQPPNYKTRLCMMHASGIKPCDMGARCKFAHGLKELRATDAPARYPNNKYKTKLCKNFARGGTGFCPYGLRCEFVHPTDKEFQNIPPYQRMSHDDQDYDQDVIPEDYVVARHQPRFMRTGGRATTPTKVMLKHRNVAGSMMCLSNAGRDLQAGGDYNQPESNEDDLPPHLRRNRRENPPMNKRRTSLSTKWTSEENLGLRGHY
Kind of assay: potency of MEX-5 RNA-binding blockers – biochemical, C. elegans, fluorescence polarization, dose response (AID 1960).

In assay [7] the target is T4, Ubiquitin-conjugating enzyme E2 N (Homo sapiens, UniProt P61088).
T4 sequence (P61088 whole entry): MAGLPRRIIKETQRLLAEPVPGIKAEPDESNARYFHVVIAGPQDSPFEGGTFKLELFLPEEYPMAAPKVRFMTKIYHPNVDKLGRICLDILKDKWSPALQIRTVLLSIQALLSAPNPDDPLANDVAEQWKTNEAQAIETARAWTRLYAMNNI
The class given is functional.

A further assay concerns the target T5, Bcl-2-related protein A1 (Mus musculus, UniProt Q07440).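 Note: confirmatory dose–response counterscreen on Bfl-1, used to check hits from a UBC13 polyubiquitin inhibitor campaign.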
T5 sequence (Q07440 whole entry): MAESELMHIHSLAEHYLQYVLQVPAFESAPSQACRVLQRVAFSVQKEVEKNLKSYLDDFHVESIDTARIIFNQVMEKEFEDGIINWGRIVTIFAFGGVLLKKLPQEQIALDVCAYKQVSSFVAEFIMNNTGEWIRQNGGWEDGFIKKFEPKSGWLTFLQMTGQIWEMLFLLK
The format is functional.

The target in assay [8] is T4, Ubiquitin-conjugating enzyme E2 N. The class given is functional. This is another data set of the same source.
For assay [9], the target named is T6, Type-1 angiotensin II receptor (Homo sapiens, UniProt P30556).
T6 sequence (P30556 whole entry): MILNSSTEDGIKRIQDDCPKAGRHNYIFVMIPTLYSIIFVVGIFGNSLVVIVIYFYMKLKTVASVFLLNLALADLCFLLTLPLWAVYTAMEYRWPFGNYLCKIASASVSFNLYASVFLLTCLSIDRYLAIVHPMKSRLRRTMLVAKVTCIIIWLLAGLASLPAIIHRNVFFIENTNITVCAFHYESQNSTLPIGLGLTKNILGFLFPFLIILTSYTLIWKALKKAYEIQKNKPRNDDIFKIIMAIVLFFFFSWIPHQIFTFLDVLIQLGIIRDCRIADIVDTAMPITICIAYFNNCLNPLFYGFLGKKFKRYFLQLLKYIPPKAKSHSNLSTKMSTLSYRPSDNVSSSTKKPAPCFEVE
Kind of assay: agonist activity at AGTR1 – cell-based, uHTS hits, selectivity assay for APJ receptor agonist project, dose response (AID 488865).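 Note: beta-arrestin recruitment to AT1 measured by enzyme fragment complementation luminescence.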 The class given is functional.

The target in another assay is Hexokinase-1 (Homo sapiens, UniProt P19367). Kind of assay: HK1 enzyme activation by HKDC1 hits – biochemical, selectivity assay for HKDC1 activator project, dose response (AID 504762). The format is functional.
A further assay deals with T7, Hexokinase HKDC1 (Homo sapiens, UniProt Q2TB90).
T7 sequence (Q2TB90 whole entry): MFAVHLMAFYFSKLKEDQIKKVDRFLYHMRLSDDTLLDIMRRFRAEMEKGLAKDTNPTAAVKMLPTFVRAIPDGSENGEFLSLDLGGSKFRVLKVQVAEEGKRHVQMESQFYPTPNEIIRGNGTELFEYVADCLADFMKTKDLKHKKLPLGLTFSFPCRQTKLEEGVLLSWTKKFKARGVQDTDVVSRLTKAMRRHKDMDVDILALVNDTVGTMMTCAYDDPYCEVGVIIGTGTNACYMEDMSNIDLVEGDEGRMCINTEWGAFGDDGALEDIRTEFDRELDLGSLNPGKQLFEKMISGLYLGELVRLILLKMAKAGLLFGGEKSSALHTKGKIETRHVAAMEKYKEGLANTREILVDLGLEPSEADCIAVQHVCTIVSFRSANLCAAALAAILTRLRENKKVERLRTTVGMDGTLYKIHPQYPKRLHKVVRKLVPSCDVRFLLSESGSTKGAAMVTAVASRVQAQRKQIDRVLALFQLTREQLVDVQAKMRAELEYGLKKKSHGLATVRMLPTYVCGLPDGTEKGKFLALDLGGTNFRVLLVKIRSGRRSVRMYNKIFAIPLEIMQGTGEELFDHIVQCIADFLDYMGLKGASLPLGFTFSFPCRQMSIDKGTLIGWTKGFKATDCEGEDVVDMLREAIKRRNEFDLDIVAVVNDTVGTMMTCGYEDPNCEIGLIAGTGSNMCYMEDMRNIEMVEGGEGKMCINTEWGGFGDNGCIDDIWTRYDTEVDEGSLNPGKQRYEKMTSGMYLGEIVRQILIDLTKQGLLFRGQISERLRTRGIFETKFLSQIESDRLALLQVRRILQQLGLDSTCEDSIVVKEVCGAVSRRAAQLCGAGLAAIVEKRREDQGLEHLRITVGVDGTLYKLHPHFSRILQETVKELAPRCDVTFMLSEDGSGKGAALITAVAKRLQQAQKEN
Kind of assay: activation of HKDC1 glucose phosphorylation – biochemical, W721R variant, dose response (AID 504730). The class given is functional.

In a further assay the test system is HEK293. Kind of assay: EBV LMP1 TES2 canonical NF-kB signalling blockers – cell-based, HEK293, luciferase, cherry-pick, dose response (AID 588343). The following applies: Homo sapiens. The class given is functional.
The next assay concerns the target Nonstructural protein 1 (Influenza A virus, UniProt Q194T2). The class given is functional, Influenza A virus (A/California/07/2009(H1N1)).

Chain of Hexokinase-1 (P19367 whole entry): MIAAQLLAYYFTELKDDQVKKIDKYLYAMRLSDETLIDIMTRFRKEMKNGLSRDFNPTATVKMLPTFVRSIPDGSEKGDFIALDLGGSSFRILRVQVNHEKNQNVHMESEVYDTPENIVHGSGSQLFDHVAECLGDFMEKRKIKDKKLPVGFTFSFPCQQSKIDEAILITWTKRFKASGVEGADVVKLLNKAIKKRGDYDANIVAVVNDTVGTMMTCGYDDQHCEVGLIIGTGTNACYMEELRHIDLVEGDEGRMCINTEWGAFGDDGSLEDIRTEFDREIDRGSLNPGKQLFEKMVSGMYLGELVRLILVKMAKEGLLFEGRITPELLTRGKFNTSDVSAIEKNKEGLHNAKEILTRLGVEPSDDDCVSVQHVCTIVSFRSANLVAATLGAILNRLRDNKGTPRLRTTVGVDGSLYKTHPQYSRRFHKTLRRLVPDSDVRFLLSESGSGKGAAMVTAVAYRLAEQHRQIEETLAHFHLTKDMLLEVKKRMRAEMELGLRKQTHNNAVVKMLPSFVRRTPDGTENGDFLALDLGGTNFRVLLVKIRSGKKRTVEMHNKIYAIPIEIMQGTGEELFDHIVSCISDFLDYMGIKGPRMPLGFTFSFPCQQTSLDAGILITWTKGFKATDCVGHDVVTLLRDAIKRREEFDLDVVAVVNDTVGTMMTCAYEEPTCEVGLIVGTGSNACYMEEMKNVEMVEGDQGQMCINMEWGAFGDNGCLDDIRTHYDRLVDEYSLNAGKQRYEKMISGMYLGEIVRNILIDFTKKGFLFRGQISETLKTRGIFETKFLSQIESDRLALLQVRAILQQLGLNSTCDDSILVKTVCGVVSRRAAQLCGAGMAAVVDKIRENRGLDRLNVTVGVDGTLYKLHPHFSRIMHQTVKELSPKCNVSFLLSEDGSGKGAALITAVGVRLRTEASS
Chain of Nonstructural protein 1 (Q194T2 whole entry): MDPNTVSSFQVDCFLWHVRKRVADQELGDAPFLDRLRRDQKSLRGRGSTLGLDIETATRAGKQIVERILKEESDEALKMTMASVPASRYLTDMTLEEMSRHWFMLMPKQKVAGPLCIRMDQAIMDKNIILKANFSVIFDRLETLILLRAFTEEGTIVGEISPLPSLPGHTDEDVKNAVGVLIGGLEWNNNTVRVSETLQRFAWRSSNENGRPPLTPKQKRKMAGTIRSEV

In the case of `O=C(c1ccc2c(c1)OCO2)N1CCN(c2ccc(F)cc2)CC1`, the IC50 on Coagulation factor XII was > 50 µM (inactive).
With `CN1C(=O)/C(=C/c2ccc(N3CCCCCC3)o2)C(=O)NC1=S`, the EC50 in assay [1] was 0.325 µM (active); on Troponin, cardiac muscle it was 2.22 µM (active); in assay [2] it was < 0.1 µM (active); in assay [3], 0.462 µM (active); in assay [4], 0.206 µM (active); in assay [5] it was > 300 µM (not active). In addition, the results for the EC50 (in the assay with H4; in [6]) were 39.5 µM (active) and > 300 µM (inconclusive), respectively.
`CCOc1ccc2nc(N(CCCN(C)C)C(=O)c3ccc(S(=O)(=O)N4CCc5ccccc5C4)cc3)sc2c1`: the IC50 in [7] is 6.95 µM (active); on Bcl-2-related protein A1, > 20 µM (inactive); in assay [8], 5.52 µM (active). Besides, the EC50 in [9] is > 100 µM (inactive).
Consider `CC(=NNC(=S)N1CC2CCC(CC2)C1)c1nccs1`, for which the EC50 was > 80 µM (inactive) on Hexokinase-1 and 1.83 µM (active) on Hexokinase HKDC1. The AC50 in the assay with HEK293 was 0.539 µM (active). Also, on Nonstructural protein 1, the IC50 is 13 µM (active).

The term IC50 denotes the point on the concentration scale where inhibition reaches its midpoint. As usually defined, the EC50 is the concentration needed to bring the measured effect to its halfway point. The AC50 is the midpoint of the concentration-response curve, whichever way the signal moves.
